# Measured values taken from patent US20250073338A1, “CONJUGATE COMPOUNDS AND COMPOSITIONS” (REZUBIO PHARMACEUTICALS CO., LTD, priority 2023, published 2025).
# Structures can show the parent of a compound that is named as a salt.
# Tests used:
# GPR40 = target: T1, GPR40 (Homo sapiens, UniProt O14842); assay: IP1 accumulation assay in HEK293 cells stably expressing GPR40; assay type: cell-based; conditions: HEK293 cells stably expressing GPR40, 2 hours at 37° C.
# T1 construct: expressed in transfected cells
# Procedure: IP1 accumulation assay was used to evaluate the potency of compounds. HEK293 cells stably expressing GPR40 were cultured in 5% CO2 incubator (ThermoFisher) in maintenance media (Dulbecco's modified Eagle's medium with 4.5 g/L of glucose, 10% fetal bovine serum, 100 μg/mL Hygromycin, and Penicillin (100 U/mL)/Streptomycin (100 μg/mL)) till 100% confluency. Cells were harvested freshly, spun down at 300× g for 5 min, and resuspended in pre-warmed 1× stimulant buffer from Cisbio IP-One HTRF Detection kit (Cisbio). Cell density was adjusted to 2.0×10^6 cells/mL. DMSO was used as blank control and AMG-1638 (CAS #: 1142214-62-7) as positive control. Compounds were prepared at 10 mM in DMSO and 5 nL of 3× serially diluted compounds (10 concentrations) were added to each well of the 384-LDV assay plate (Corning) by using ECHO 550 (Labcyte). Five μL of cells in suspension were transferred into each well by using Multidrop Combi Reagent Dispenser (ThermoFisher). Assay plate was then sealed and incubated at 37° C. for 2 hours. IP-d2 reagent and anti-IP1 reagent were prepared following the manual (Cisbio). Five μL of IP1-d2 and then 5 μL of anti-IP1 antibody was added to each well sequentially. Assay plate was incubated at room temperature for 60 min and then read at 665 nm/615 nm on an Envision plate reader (PerkinElmer). The ratio of values obtained at 665 nm and 615 nm was used for calculation of IP1 accumulation: % Effect=(Ratiosample−Ratioblank)/(RatioAMG-1638−Ratioblank)×100. Dose curve was fitted and EC50 of each compound was calculated by using XLFit.
# [1] = Pharmacokinetics in mice (IV and PO), plasma LC-MS/MS; assay type: in vivo, Male ICR (CD-1) mice
# Procedure: Male ICR (CD-1) mice at around 4-6 weeks with body weight of around 25 grams (n=3) were purchased from VT-River (Zhejiang, China). After 1-week acclimation, animals were dosed with exemplary compounds intravenously at 1 mpk or orally at 10 mpk (0.5% methylcellulose in PBS as vehicle for both routes of administration). Blood samples (30 μL) were collected via saphenous vein puncture at 5 (IV only), 15, 30, 60, 120, 240, 480, and 1440 min post dose. The blood samples were saved in 0.5 M K2EDTA coated tubes and centrifuged at 4,600 rpm at 4° C. for 5 min. Plasma samples were collected and stored in −80° C. till PK analysis.
# Take 10 μL of K2EDTA-treated plasma samples of CD-1 mice, add 200 μL of precipitation solution with internal standard (5 ng/mL Terfenadine in MeOH/ACN), mix well by vortexing for 1 min at room temperature followed by centrifuge at 4° C. and 4000 rpm for 15 min. Save the supernatant as injection for LC-MS/MS quantification of exemplary compounds in plasma samples of mice.
# Establish a standard curve before and after each analytical batch, accompanied by quality controls of low, medium, and high concentrations. The number of quality control samples is not less than 6 and should be equal to or more than the number of samples of each batch, and interspersed in sample measurement. Standard curve and quality control samples of each batch must meet the acceptance criteria.
# [2] = male, ICR (CD-1), mouse, plasma, 10 mg/kg, PO (10 mpk)
# T1 sequence (O14842 whole entry): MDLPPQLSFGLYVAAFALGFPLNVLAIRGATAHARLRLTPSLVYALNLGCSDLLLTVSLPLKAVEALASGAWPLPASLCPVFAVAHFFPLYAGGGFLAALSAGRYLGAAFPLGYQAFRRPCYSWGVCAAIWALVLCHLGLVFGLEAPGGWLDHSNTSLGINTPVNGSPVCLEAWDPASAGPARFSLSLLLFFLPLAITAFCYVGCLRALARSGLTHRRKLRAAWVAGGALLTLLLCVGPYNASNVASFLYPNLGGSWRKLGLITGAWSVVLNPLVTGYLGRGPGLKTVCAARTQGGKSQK
SMILES,EC50 (GPR40) [nM],further results
COc1ccc(C(=O)N(CC(C)(C)CCCCCCCCCCCCCCCCCCCC(=O)NCCN(CCC(=O)NCCN)CCC(=O)NCCN)c2cccc(C)n2)c(N2CCC(COc3cc([C@@H](CC(=O)O)C4CC4)ccn3)CC2)c1 [Example 1],1.23,
COc1ccc(C(=O)N(CC(C)(C)CCCCCCCCCCCCCCCCCCCC(=O)NCCN(CC(=O)NCCN)CC(=O)NCCN)c2cccc(C)n2)c(N2CCC(COc3cc([C@@H](CC(=O)O)C4CC4)ccn3)CC2)c1 [Example 2],2,
COc1ccc(C(=O)N(CC(C)(C)CCCCCCCCCCCCCCCCCCCC(=O)NCC[N+](C)(CCC(=O)NCCN)CCC(=O)NCCN)c2cccc(C)n2)c(N2CCC(COc3cc([C@@H](CC(=O)O)C4CC4)ccn3)CC2)c1 [Example 3],1.79,
COc1ccc(C(=O)N(CC(C)(C)CCCCCCCCCCCCCCCCCCCC(=O)NCC[N+](C)(CC(=O)NCCN)CC(=O)NCCN)c2cccc(C)n2)c(N2CCC(COc3cc([C@@H](CC(=O)O)C4CC4)ccn3)CC2)c1 [Example 4],2.14,"Cl ([1]; IV (1 mpk)): 0.22 ml/mL/kg; AUC ([1]; male, ICR (CD-1), mouse, plasma, 1 mg/kg, IV (1 mpk)): 54.1 µM·h; half-life ([1]; male, ICR (CD-1), mouse, plasma, 1 mg/kg, IV (1 mpk), read-out: T½ (converted)): 8.2 h; Vd ([1]; male, ICR (CD-1), mouse, plasma, 1 mg/kg, IV (1 mpk), read-out: Vss): 0.14 L/kg; Cmax [1, 2]: 66.1 nM; Tmax [1, 2]: 5.3 h; bioavailability ([1]; male, ICR (CD-1), mouse, plasma, 10 mg/kg, PO (10 mpk), oral bioavailability): 0.16%"
COc1ccc(C(=O)N(CC(C)(C)CCCCCCCCCCCCCCCCCCCC(=O)NCCCN(CC(=O)NCCN)CC(=O)NCCN)c2cccc(C)n2)c(N2CCC(COc3cc([C@@H](CC(=O)O)C4CC4)ccn3)CC2)c1 [Example 5],1.73,
COc1ccc(C(=O)N(CC(C)(C)CCCCCCCCCCCCCCCCCCCC(=O)NCCC[N+](C)(CC(=O)NCCN)CC(=O)NCCN)c2cccc(C)n2)c(N2CCC(COc3cc([C@@H](CC(=O)O)C4CC4)ccn3)CC2)c1 [Example 6],0.84,
COc1ccc(C(=O)N(CC(C)(C)CCCCCCCCCCCCCCCCCC(=O)NCC[N+](C)(CC(=O)NCCN)CC(=O)NCCN)c2cccc(C)n2)c(N2CCC(COc3cc([C@@H](CC(=O)O)C4CC4)ccn3)CC2)c1 [Example 7],0.53,
COc1ccc(C(=O)N(CC(C)(C)CCCCCCCCCCCCCCCCCCCC(=O)NCCN(CCCC(=O)NCCN)CCCC(=O)NCCN)c2cccc(C)n2)c(N2CCC(COc3cc([C@@H](CC(=O)O)C4CC4)ccn3)CC2)c1 [Example 8],0.28,
COc1ccc(C(=O)N(CC(C)(C)CCCCCCCCCCCCCCCCCCCC(=O)NCC[N+](C)(CCCC(=O)NCCN)CCCC(=O)NCCN)c2cccc(C)n2)c(N2CCC(COc3cc([C@@H](CC(=O)O)C4CC4)ccn3)CC2)c1 [Example 9],0.35,
COc1ccc(C(=O)N(CC(C)(C)CCCCCCCCCCCCCCCCCCCCC(=O)NCC[N+](C)(CC(=O)NCCN)CC(=O)NCCN)c2cccc(C)n2)c(N2CCC(COc3cc([C@@H](CC(=O)O)C4CC4)ccn3)CC2)c1 [Example 10],3.65,
"COc1ccc(C(=O)N(CC(C)(C)CCCCCCCCCCCCCCCCCCCCCC(=O)NCC[N+](C)(CC(=O)NCCN)CC(=O)NCCN)c2cccc(C)n2)c(N2CCC(COc3cc([C@@H](CC(=O)O)C4CC4)ccn3)CC2)c1 [Example 11, (S)-2-((2-aminoethyl)amino)-N-(2-((2-aminoethyl)amino)-2-oxoethyl)-N-(2-(24-(2-(4-(((4-(2-carboxy-1-cyclopropylethyl)pyridin-2-yl)oxy)methyl)piperidin-1-yl)-4-methoxy-N-(6-methylpyridin-2-yl)benzamido)-23,23-dimethyltetracosanamido)ethyl)-N-methyl-2-oxoethanaminium trifluoroacetate]",1.34,
COc1ccc(C(=O)N(CC(C)(C)CCCCCCCCCCCCCCCCCCCC(=O)NCCCN(C)CC(=O)NCCN)c2cccc(C)n2)c(N2CCC(COc3cc([C@@H](CC(=O)O)C4CC4)ccn3)CC2)c1 [Example 15],0.67,
COc1ccc(C(=O)N(CC(C)(C)CCCCCCCCCCCCCCCCCCCC(=O)NCCC[N+](C)(C)CC(=O)NCCN)c2cccc(C)n2)c(N2CCC(COc3cc([C@@H](CC(=O)O)C4CC4)ccn3)CC2)c1 [Example 16],0.48,
C[C@H](C(=O)O)[C@H](c1ccc2c(c1)O[C@@H](C1CCN(Cc3cc(CCCCCCCCCCCCCCCCCCCC(=O)NCCC[N+](C)(CC(=O)NCCN)CC(=O)NCCN)ccc3OC(F)(F)F)CC1)CC2)C1CC1 [Example 20],3.57,
COc1ccc(C(=O)N(CC(C)(C)CCCCCCCCCCCCCCCCCC[N+]23CCN(CC2)CC3)c2cccc(C)n2)c(N2CCC(COc3cc([C@@H](CC(=O)O)C4CC4)ccn3)CC2)c1 [Example 22],0.36,
"COc1ccc(C(=O)N(CC(C)(C)CCCCCCCCCCCCCCCCCCNC(=O)C[N+]23CCN(CC2)CC3)c2cccc(C)n2)c(N2CCC(COc3cc([C@@H](CC(=O)O)C4CC4)ccn3)CC2)c1 [Example 23, (S)-1-(2-((20-(2-(4-(((4-(2-carboxy-1-cyclopropylethyl)pyridin-2-yl)oxy)methyl)piperidin-1-yl)-4-methoxy-N-(6-methylpyridin-2-yl)benzamido)-19,19-dimethylicosyl)amino)-2-oxoethyl)-1,4-diazabicyclo[2.2.2]octan-1-ium trifluoroacetate]",2.8,
COc1ccc(C(=O)N(CC(C)(C)CCCCCCCCCCCCCCCCCC[N+]2(C)CCN(C)CC2)c2cccc(C)n2)c(N2CCC(COc3cc([C@@H](CC(=O)O)C4CC4)ccn3)CC2)c1 [Example 24],1.15,
COc1ccc(C(=O)N(CC(C)(C)CCCCCCCCCCCCCCCCCC[N+](C)(C)C)c2cccc(C)n2)c(N2CCC(COc3cc([C@@H](CC(=O)O)C4CC4)ccn3)CC2)c1 [Example 25],0.45,
CC[N+](CC)(CC)CCCCCCCCCCCCCCCCCCC(C)(C)CN(C(=O)c1ccc(OC)cc1N1CCC(COc2cc([C@@H](CC(=O)O)C3CC3)ccn2)CC1)c1cccc(C)n1 [Example 26],0.36,
COc1ccc(C(=O)N(CC(C)(C)CCn2cc(CCCCCCCCCCCCCCCCCC(=O)NCCNC(=O)C(CCCCN(CCCN)CCCN)NCCCN)nn2)c2cccc(C)n2)c(N2CCC(COc3cc([C@@H](CC(=O)O)C4CC4)ccn3)CC2)c1 (some centres unmarked) [Example 27],0.71,
COc1ccc(C(=O)N(CC(C)(C)CCCCCCCCCCCCCCCCCC(=O)NCCCC[N+]23CCN(CC2)CC3)c2cccc(C)n2)c(N2CCC(COc3cc([C@@H](CC(=O)O)C4CC4)ccn3)CC2)c1 [Example 28],0.49,
COc1ccc(C(=O)N(CC(C)(C)CCCCCCCCCCCCCCCCCC(=O)NCCCC[N+](C)(C)C)c2cccc(C)n2)c(N2CCC(COc3cc([C@@H](CC(=O)O)C4CC4)ccn3)CC2)c1 [Example 29],0.32,
CC[N+](CC)(CC)CCCCNC(=O)CCCCCCCCCCCCCCCCCC(C)(C)CN(C(=O)c1ccc(OC)cc1N1CCC(COc2cc([C@@H](CC(=O)O)C3CC3)ccn2)CC1)c1cccc(C)n1 [Example 30],0.43,
COc1ccc(C(=O)N(CC(C)(C)CCCCCCCCCCCCCCCCCC(=O)NCc2ccccc2)c2cccc(C)n2)c(N2CCC(COc3cc([C@@H](CC(=O)O)C4CC4)ccn3)CC2)c1 [Example 31],163,
CCCCNC(=O)CCCCCCCCCCCCCCCCCC(C)(C)CN(C(=O)c1ccc(OC)cc1N1CCC(COc2cc([C@@H](CC(=O)O)C3CC3)ccn2)CC1)c1cccc(C)n1 [Example 32],385,
COc1ccc(C(=O)N(CC(C)(C)CCn2cc(CCCCCCCCCCCCCCCCCC(=O)O)nn2)c2cccc(C)n2)c(N2CCC(COc3cc([C@@H](CC(=O)O)C4CC4)ccn3)CC2)c1 [Example 33],> 152,
COc1ccc(C(=O)N(CC(C)(C)CCCCCCCCCCCCCCCCCC(=O)NCCC[N+](C)(CC(=O)[O-])CC(=O)O)c2cccc(C)n2)c(N2CCC(COc3cc([C@@H](CC(=O)O)C4CC4)ccn3)CC2)c1 (some centres unmarked) [Example 35],0.63,
COc1ccc(C(=O)N(CC(C)(C)CCCCCCCCCCCCCCCCCC(=O)NCCC[N+](C)(C)CCCS(=O)(=O)[O-])c2cccc(C)n2)c(N2CCC(COc3cc([C@@H](CC(=O)O)C4CC4)ccn3)CC2)c1 [Example 36],0.78,
